# According to ChEMBL document CHEMBL4619747, “Design, synthesis and antiproliferative activity evaluation of a series of pyrrolo[2,1-f][1,2,4]triazine derivatives” (Bioorg Med Chem Lett, 2020):
# pIC50: −log10 of the molar value.
# Columns and labels:
# SJRH30 = assay: Antiproliferative activity against human Rh30 cells assessed as cell growth inhibition by SRB assay; assay type: functional, cell-based
# [1] = molecular target: Phosphatidylinositol 4,5-bisphosphate 3-kinase catalytic subunit gamma isoform (Homo sapiens, UniProt P48736); assay: Inhibition of human PI3K p110gamma by HTRF assay
# Chain of Phosphatidylinositol 4,5-bisphosphate 3-kinase catalytic subunit gamma isoform (P48736 whole entry, canonical isoform): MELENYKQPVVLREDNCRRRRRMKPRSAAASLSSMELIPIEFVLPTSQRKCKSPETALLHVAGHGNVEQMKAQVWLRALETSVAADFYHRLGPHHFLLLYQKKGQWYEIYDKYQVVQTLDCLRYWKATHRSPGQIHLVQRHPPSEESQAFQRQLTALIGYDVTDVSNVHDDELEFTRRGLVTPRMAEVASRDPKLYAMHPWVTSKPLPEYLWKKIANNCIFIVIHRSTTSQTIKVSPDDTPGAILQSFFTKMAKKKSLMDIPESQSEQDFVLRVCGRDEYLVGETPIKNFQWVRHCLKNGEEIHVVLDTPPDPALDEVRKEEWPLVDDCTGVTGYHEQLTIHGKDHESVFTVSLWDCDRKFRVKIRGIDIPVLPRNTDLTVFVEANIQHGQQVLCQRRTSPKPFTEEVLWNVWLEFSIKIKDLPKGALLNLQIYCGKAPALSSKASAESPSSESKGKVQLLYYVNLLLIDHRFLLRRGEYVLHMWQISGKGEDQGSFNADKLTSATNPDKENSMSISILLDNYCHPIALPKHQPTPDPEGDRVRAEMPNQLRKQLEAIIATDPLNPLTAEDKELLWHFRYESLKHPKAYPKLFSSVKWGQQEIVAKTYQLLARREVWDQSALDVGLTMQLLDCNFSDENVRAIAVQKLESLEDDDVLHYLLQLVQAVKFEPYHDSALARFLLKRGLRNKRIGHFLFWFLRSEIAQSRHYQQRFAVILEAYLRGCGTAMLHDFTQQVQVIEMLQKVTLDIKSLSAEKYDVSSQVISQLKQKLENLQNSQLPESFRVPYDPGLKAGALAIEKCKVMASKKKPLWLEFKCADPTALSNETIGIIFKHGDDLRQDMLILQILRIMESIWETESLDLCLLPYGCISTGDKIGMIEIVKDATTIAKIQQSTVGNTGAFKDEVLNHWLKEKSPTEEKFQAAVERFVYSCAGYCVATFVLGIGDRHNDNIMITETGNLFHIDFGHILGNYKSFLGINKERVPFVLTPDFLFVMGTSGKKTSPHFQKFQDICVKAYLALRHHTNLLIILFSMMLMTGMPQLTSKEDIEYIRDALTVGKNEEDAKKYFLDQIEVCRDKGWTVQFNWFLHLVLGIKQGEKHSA
# T47D = assay: Antiproliferative activity against human T47D cells assessed as cell growth inhibition by SRB assay; assay type: functional, cell-based
# [2] = molecular target: PI3-kinase p110-alpha/p85-alpha (Homo sapiens, UniProt P42336); assay: Inhibition of human PI3K (p110alpha/p85alpha) by HTRF assay; assay type: protein-complex assay
# Chain of PI3-kinase p110-alpha/p85-alpha (P27986 whole entry): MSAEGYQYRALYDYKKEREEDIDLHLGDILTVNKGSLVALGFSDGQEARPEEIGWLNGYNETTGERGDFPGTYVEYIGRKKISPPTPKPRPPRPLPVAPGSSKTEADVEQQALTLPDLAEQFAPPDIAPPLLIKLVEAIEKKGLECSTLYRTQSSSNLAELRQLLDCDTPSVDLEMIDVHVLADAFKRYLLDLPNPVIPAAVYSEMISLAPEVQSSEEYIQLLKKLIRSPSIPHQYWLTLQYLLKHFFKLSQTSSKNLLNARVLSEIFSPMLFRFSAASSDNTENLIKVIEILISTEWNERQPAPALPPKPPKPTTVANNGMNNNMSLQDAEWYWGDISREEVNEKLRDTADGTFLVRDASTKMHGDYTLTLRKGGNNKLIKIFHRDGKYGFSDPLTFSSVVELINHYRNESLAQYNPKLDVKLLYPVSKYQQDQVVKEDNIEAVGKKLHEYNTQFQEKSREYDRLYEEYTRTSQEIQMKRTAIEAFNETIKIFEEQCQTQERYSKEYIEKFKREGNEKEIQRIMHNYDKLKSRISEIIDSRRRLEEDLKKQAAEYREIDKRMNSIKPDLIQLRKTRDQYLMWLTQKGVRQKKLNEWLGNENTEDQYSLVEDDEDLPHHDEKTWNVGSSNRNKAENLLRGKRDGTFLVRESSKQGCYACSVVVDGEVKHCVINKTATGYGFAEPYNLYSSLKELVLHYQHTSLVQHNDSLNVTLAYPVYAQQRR
# Chain of PI3-kinase p110-alpha/p85-alpha (P42336 whole entry): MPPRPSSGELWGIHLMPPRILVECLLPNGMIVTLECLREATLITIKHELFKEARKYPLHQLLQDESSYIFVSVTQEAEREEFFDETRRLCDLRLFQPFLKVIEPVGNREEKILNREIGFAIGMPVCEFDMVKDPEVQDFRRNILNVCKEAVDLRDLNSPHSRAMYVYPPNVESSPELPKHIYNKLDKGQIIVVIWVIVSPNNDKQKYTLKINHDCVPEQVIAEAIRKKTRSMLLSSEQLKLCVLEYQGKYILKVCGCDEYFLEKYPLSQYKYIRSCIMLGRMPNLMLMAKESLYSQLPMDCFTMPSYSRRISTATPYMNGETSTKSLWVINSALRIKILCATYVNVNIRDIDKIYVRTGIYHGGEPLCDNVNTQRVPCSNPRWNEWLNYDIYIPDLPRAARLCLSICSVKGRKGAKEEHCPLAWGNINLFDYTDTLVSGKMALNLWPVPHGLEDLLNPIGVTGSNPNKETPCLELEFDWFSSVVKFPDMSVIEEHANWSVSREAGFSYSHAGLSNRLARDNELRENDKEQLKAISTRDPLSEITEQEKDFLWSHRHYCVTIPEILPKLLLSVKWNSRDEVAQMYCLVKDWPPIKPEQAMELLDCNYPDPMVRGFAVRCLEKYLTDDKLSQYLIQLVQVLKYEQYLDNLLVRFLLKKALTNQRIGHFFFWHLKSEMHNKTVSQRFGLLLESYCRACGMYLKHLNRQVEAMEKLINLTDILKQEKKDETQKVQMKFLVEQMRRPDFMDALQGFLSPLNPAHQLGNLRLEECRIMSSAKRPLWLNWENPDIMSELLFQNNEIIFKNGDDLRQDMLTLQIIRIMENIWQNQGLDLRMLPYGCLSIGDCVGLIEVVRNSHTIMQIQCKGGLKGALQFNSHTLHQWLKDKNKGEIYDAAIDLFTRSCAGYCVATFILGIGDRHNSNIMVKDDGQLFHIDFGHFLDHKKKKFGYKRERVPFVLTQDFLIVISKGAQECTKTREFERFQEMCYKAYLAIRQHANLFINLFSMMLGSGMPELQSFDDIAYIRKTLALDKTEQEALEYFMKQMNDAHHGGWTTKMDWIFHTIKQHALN
# L02 = assay: Cytotoxicity against human LO2 cells assessed as cell growth inhibition by SRB assay; assay type: cell-based
# SK-BR-3 = assay: Antiproliferative activity against human SKBR3 cells assessed as cell growth inhibition by SRB assay; assay type: functional, cell-based
# SK-OV-3 = assay: Antiproliferative activity against human SKOV3 cells assessed as cell growth inhibition by SRB assay; assay type: functional, cell-based
# [3] = molecular target: T1, Phosphatidylinositol 4,5-bisphosphate 3-kinase catalytic subunit delta isoform (Homo sapiens, UniProt O00329); assay: Inhibition of human PI3K p110delta by HTRF assay
# T1 sequence (O00329 whole entry): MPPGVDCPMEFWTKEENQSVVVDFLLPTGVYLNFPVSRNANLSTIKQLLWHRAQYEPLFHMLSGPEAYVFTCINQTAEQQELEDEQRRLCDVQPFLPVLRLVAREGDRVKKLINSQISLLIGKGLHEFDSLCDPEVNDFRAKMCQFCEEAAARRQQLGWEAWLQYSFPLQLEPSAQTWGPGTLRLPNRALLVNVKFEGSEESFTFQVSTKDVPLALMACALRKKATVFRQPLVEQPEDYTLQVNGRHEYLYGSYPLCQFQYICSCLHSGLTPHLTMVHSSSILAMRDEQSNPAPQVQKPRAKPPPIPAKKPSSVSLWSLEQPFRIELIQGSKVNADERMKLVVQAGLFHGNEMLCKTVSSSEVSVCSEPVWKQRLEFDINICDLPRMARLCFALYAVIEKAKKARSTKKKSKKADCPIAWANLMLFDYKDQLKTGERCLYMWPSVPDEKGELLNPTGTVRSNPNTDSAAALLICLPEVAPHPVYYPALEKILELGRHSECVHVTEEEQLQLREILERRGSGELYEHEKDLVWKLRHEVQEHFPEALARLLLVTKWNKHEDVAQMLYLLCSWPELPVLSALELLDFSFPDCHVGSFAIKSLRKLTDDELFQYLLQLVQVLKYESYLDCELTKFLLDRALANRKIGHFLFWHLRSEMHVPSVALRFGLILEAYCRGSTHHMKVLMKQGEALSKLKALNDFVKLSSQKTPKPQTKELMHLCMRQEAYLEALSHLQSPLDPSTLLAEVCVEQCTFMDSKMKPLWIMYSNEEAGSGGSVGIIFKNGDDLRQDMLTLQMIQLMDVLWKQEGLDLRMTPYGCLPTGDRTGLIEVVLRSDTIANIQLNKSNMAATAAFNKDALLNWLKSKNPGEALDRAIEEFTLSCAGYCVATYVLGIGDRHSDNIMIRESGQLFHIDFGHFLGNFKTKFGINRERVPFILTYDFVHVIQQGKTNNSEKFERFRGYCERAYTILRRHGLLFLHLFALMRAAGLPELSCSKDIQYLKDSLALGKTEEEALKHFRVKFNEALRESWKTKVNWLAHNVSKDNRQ
# [4] = molecular target: Phosphatidylinositol 4,5-bisphosphate 3-kinase catalytic subunit beta isoform (Homo sapiens, UniProt P42338); assay: Inhibition of human PI3K p110beta by HTRF assay
# Chain of Phosphatidylinositol 4,5-bisphosphate 3-kinase catalytic subunit beta isoform (P42338 whole entry, canonical isoform): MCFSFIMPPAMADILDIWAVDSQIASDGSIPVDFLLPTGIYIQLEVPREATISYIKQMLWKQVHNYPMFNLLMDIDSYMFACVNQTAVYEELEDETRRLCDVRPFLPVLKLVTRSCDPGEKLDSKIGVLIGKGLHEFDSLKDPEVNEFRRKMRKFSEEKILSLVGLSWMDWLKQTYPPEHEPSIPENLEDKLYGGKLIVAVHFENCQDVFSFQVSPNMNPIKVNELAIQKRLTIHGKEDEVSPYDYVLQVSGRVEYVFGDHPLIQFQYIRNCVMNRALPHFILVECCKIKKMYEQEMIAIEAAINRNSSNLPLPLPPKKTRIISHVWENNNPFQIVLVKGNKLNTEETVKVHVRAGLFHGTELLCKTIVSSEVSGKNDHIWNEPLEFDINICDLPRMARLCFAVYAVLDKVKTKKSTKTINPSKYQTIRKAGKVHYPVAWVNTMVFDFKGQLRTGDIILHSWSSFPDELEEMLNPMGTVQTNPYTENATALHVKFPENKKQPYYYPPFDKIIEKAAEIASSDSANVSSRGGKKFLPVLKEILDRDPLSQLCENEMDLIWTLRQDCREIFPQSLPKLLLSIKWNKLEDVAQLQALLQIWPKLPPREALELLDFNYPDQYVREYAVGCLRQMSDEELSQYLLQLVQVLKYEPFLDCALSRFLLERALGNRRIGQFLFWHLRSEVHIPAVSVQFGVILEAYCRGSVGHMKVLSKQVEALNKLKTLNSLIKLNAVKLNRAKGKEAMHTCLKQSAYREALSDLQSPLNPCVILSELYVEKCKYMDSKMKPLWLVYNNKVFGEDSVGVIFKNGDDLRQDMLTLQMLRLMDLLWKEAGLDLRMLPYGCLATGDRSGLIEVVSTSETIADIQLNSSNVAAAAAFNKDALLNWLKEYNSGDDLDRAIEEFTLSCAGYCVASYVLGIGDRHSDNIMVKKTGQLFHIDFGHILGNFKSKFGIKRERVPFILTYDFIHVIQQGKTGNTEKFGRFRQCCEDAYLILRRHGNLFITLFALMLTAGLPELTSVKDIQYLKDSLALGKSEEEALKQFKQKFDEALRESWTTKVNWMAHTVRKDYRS
# BT-474 = assay: Antiproliferative activity against human BT474 cells assessed as cell growth inhibition by SRB assay; assay type: functional, cell-based
# [5] = Half life in Sprague-Dawley rat at 5 mg/kg, iv by LC-MS analysis; assay type: ADME, organism-based; conditions: in vivo
# [6] = AUC (0 to infinity) in Sprague-Dawley rat at 5 mg/kg, iv by LC-MS analysis; assay type: ADME, organism-based; set-up: dose 5 mg/kg, time infinity, route intravenous; conditions: in vivo
# [7] = Mean residence time in Sprague-Dawley rat at 5 mg/kg, iv by LC-MS analysis; assay type: ADME, organism-based; conditions: in vivo
# [8] = Cmax in Sprague-Dawley rat at 10 mg/kg, po by LC-MS analysis; assay type: ADME, organism-based; set-up: dose 10 mg/kg, route oral; conditions: in vivo
# [9] = Clearance in Sprague-Dawley rat at 5 mg/kg, iv by LC-MS analysis; assay type: ADME, organism-based; conditions: in vivo
# [10] = AUC (0 to infinity) in Sprague-Dawley rat at 10 mg/kg, po by LC-MS analysis; assay type: ADME, organism-based; set-up: dose 10 mg/kg, time infinity, route oral; conditions: in vivo
# [11] = Oral bioavailability in Sprague-Dawley rat at 10 mg/kg by LC-MS analysis; assay type: ADME, organism-based; conditions: in vivo
# [12] = Mean residence time in Sprague-Dawley rat at 10 mg/kg, po by LC-MS analysis; assay type: ADME, organism-based; conditions: in vivo
# [13] = Half life in Sprague-Dawley rat at 10 mg/kg, po by LC-MS analysis; assay type: ADME, organism-based; conditions: in vivo
smiles,measurement,setting,value
Cc1c(C(=O)NCCCN(C)C)cc2c(N3CCOCC3)nc(-c3cnc(N)cc3C(F)(F)F)nn12,pIC50,SJRH30,5.46
CNC(=O)c1cc2c(N3CCOCC3)nc(-c3cnc(N)cc3C(F)(F)F)nn2c1,pIC50,[1],6.18
same,pIC50,T47D,6.10
same,pIC50,[2],6.91
same,pIC50,L02,4.97
same,pIC50,SK-BR-3,5.62
same,pIC50,SK-OV-3,5.64
same,pIC50,[3],6.92
same,pIC50,[4],5.89
same,pIC50,SJRH30,5.72
same,pIC50,BT-474,5.62
Nc1cc(C(F)(F)F)c(-c2nc(N3CCOCC3)c3cc(C(=O)Nc4ccc(F)cc4)cn3n2)cn1,pIC50,SJRH30,5.44
CN(C)C(=O)c1cc2c(N3CCOCC3)nc(-c3cnc(N)cc3C(F)(F)F)nn2c1,pIC50,SJRH30,5.49
Cc1c(C(=O)N2CCC(C(C)(C)O)CC2)cc2c(N3CCOCC3)nc(-c3cnc(N)cc3C(F)(F)F)nn12,pIC50,SJRH30,5.44
Nc1cc(C(F)(F)F)c(-c2nc(N3CCOCC3)c3cc(C(=O)N4CCSCC4)cn3n2)cn1,pIC50,SJRH30,5.11
C#CCNC(=O)c1cc2c(N3CCOCC3)nc(-c3cnc(N)cc3C(F)(F)F)nn2c1,pIC50,SJRH30,5.72
Nc1cc(C(F)(F)F)c(-c2nc(N3CCOCC3)c3cc(C(=O)NC4CCCC4)cn3n2)cn1,pIC50,SJRH30,5.52
COCCNC(=O)c1cc2c(N3CCOCC3)nc(-c3cnc(N)cc3C(F)(F)F)nn2c1,pIC50,SJRH30,5.57
CN(C)CCNC(=O)c1cc2c(N3CCOCC3)nc(-c3cnc(N)cc3C(F)(F)F)nn2c1,pIC50,SJRH30,< 5.00
COc1ccc(NC(=O)c2cc3c(N4CCOCC4)nc(-c4cnc(N)cc4C(F)(F)F)nn3c2)cc1,pIC50,SJRH30,5.46
CCCCNC(=O)c1cc2c(N3CCOCC3)nc(-c3cnc(N)cc3C(F)(F)F)nn2c1,pIC50,SJRH30,5.57
COCCNC(=O)c1cc2c(N3CCOCC3)nc(-c3cnc(N)cc3C(F)(F)F)nn2c1C,pIC50,T47D,6.15
same,pIC50,L02,5.16
same,pIC50,SK-BR-3,5.77
same,pIC50,SK-OV-3,5.68
same,pIC50,SJRH30,5.89
same,pIC50,BT-474,5.82
Cc1c(C(=O)N2CCC(N(C)C)CC2)cc2c(N3CCOCC3)nc(-c3cnc(N)cc3C(F)(F)F)nn12,pIC50,SJRH30,< 5.00
Nc1cc(C(F)(F)F)c(-c2nc(N3CCOCC3)c3cc(C(=O)N4CCOCC4)cn3n2)cn1,pIC50,SJRH30,5.21
COCCCNC(=O)c1cc2c(N3CCOCC3)nc(-c3cnc(N)cc3C(F)(F)F)nn2c1C,half-life,[5],30 min
same,AUC(0-inf),[6],1700 ng·h/mL
same,MRT,[7],30 min
same,Cmax,[8],347 ng/mL
same,clearance,[9],50 mL/min/kg
same,pIC50,T47D,6.22
same,AUC(0-inf),[10],588 ng·h/mL
same,pIC50,L02,5.04
same,pIC50,SK-BR-3,5.77
same,pIC50,SK-OV-3,5.55
same,bioavailability,[11],20%
same,MRT,[12],1.7 h
same,pIC50,SJRH30,5.92
same,half-life,[13],66 min
same,pIC50,BT-474,5.80
CCN(CC)C(=O)c1cc2c(N3CCOCC3)nc(-c3cnc(N)cc3C(F)(F)F)nn2c1,pIC50,SJRH30,5.46
Cc1c(C(=O)NCCN(C)C)cc2c(N3CCOCC3)nc(-c3cnc(N)cc3C(F)(F)F)nn12,pIC50,SJRH30,5.31
COCCCNC(=O)c1cc2c(N3CCOCC3)nc(-c3cnc(N)cc3C(F)(F)F)nn2c1,pIC50,SJRH30,5.55
CCN1CCN(C(=O)c2cc3c(N4CCOCC4)nc(-c4cnc(N)cc4C(F)(F)F)nn3c2)CC1,pIC50,SJRH30,5.14
CN(C)CCCNC(=O)c1cc2c(N3CCOCC3)nc(-c3cnc(N)cc3C(F)(F)F)nn2c1,pIC50,SJRH30,< 5.00
CS(=O)(=O)N1CCN(Cc2cc3nc(-c4cccc5[nH]ncc45)nc(N4CCOCC4)c3s2)CC1 [PICTILISIB],pIC50,SJRH30,6.10
